Experimental data taken from patent publication US8785452B2, “Anti-infective compounds” (priority 2008, dated 2014).
≈ marks a conversion by molar mass, not a printed value. Read-outs that look alike come from different tables or passages of the source.

Tests used:
[1] = tested on: M. tuberculosis H37Rv-GFP; test: microbe, parasite or virus in culture; format: cell-based, Mycobacterium tuberculosis; details: for inhibition at 0.2 µM / inhibition at 2 µM / inhibition at 20 µM: Macrophage; for inhibition at 0.2 µM: read-out: QIM Confirm % Inhibition 0.2 uM; for inhibition at 2 µM: read-out: QIM Confirm % Inhibition 2 uM
Raw264.7 cells = test: Cell number (CellNb) from image analysis of the phenotypic cell-based assay
[2] = tested on: M. tuberculosis H37Rv-GFP; test: microbe, parasite or virus in culture; format: cell-based; details: Mycobacterium tuberculosis; for inhibition at 0.2 µM: read-out: QUM Confirm % Inhibition 0.2 uM; for inhibition at 2 µM: read-out: QUM Confirm % Inhibition 2 uM; for inhibition at 20 µM: read-out: QUM Confirm % Inhibition 20 uM
[3] = Mycobacterium tuberculosis, H37RV, confirmation, 0.2 uM, intracellular
[4] = Mycobacterium tuberculosis, H37RV, confirmation, 2 uM, intracellular
[5] = Mycobacterium tuberculosis, H37RV, confirmation, 20 uM, read-out: QIM Confirm % Inhibition 20 uM
[6] = Mycobacterium tuberculosis, H37RV, primary screen, 20 μM, read-out: Primary QIM % Inhibition
[7] = Mycobacterium tuberculosis, H37RV, read-out: Primary QIM % Inhibition
[8] = Mycobacterium tuberculosis, H37RV
[9] = Mycobacterium tuberculosis, H37RV, read-out: QIM Confirm % Inhibition 20 uM
[10] = Mycobacterium tuberculosis, H37RV, confirmation, 20 uM, intracellular, read-out: QIM Confirm % Inhibition 20 uM
[11] = Mycobacterium tuberculosis, H37RV, primary screen, 20 μM, intracellular, read-out: Primary QIM % Inhibition

Row | SMILES | inhibition at 0.2 µM [1, 3] [%] | inhibition at 2 µM [1, 4] [%] | inhibition at 20 µM [1, 5] [%] | inhibition at 20 µM [1, 6] [%] | QIM Confirm CellNb 0.2 uM (Raw264.7 cells; confirmation, 0.2 uM) | QIM Confirm CellNb 2 uM (Raw264.7 cells; confirmation, 2 uM) | QIM Confirm CellNb 20 uM (Raw264.7 cells; confirmation, 20 uM) | Primary QIM CellNb (Raw264.7 cells; primary screen, 20 μM) | inhibition at 0.2 µM [2] [%] | inhibition at 2 µM [2] [%] | inhibition at 20 µM [2] [%] | further results
1 | CCOC(=O)/N=C(\NC(C)=O)c1cccc(Cl)c1 [IPK 000 033 61] | 16.2 | 13.8 | 62.9 | 31.6 | 210.8 | 434.1 | 111.8 | 188.3 | 51.6 | 37.6 | 67.1 | –
2 | COc1ccccc1OCCNC(=O)c1cc([N+](=O)[O-])cc([N+](=O)[O-])c1 [IPK 000 027 74] | – | – | – | – | – | – | – | – | 43.5 | 97.5 | 100 | inhibition at 20 µM [1, 7]: 87.2%; inhibition at 0.2 µM [1, 8]: -2.7%; inhibition at 2 µM [1, 8]: 83.3%; inhibition at 20 µM [1, 9]: 96.9%; Primary QIM CellNb (Raw264.7 cells): 366.0; QIM Confirm CellNb 0.2 uM (Raw264.7 cells): 268.5; QIM Confirm CellNb 2 uM (Raw264.7 cells): 478.8; QIM Confirm CellNb 20 uM (Raw264.7 cells): 435.8
3 | O=C(N/N=C/c1ccccc1O)c1ccncc1 [IPK 000 041 45] | 56.7 | 103 | 87.2 | 88.6 | 437.4 | 527.9 | 243.8 | 324.5 | 38.4 | 47.4 | 100 | –
4 | c1ccc(COc2ccc(NCCc3ccncc3)cc2)cc1 [IPK 000 016 00] | 3.2 | 19.4 | 37.9 | -19 | 278.8 | 265.4 | 300.3 | 93.0 | 47.1 | 48.6 | 68 | –
5 | CCOC(=O)C1(O)c2ccccc2-c2ccccc21 [IPK 000 105 55] | – | – | 91.5 | 89.3 | – | – | – | 181.3 | – | – | – | –
6 | CCCCS(=O)(=O)/C=C\C=C\S(=O)(=O)CCCC [IPK 000 036 07] | 17.2 | 32 | 59.5 | 27.7 | 267.4 | 293.9 | 164.4 | 142.3 | 42.3 | 47.9 | 70.6 | –
7 | O=C(NN=C1CCCC1)c1ccncc1 [IPK 000 013 70] | 50.5 | 98.1 | 103 | 88.3 | 412.6 | 510.9 | 518.5 | 309.3 | 46.3 | 79.4 | 67.6 | –
8 | Cc1nn(-c2ccccc2)c(Cl)c1/C=N/NC(=O)c1ccccn1 [IPK 000 001 90] | 12.7 | 13.2 | 96.5 | 91.9 | 190.0 | 173.6 | 317.6 | 435.5 | 34.6 | 29.4 | 42.3 | –
9 | O=C1Nc2ccccc2/C1=N/NC(=O)c1ccncc1 [IPK 000 006 35] | 17.7 | 22.8 | 65.2 | 97.6 | 262.8 | 320.9 | 328.8 | 424.3 | 23.7 | 41.9 | 43.4 | –
10 | O=C([O-])Cc1ccccc1Nc1c(Cl)cccc1Cl.[Na+] [IPK 000 117 05] | – | – | 80.5 | 79.8 | – | – | – | 656.5 | – | – | – | –
11 | O=C(NCCOCc1ccccc1)c1cc([N+](=O)[O-])cc([N+](=O)[O-])c1 [IPK 000 027 91] | – | – | – | – | – | – | – | – | 65.8 | 97.6 | 75 | inhibition at 20 µM [1, 7]: 89%; inhibition at 0.2 µM [1, 8]: 14.2%; inhibition at 2 µM [1, 8]: 98.5%; inhibition at 20 µM [1, 9]: 46.1%; Primary QIM CellNb (Raw264.7 cells): 410.8; QIM Confirm CellNb 0.2 uM (Raw264.7 cells): 295.3; QIM Confirm CellNb 2 uM (Raw264.7 cells): 434.1; QIM Confirm CellNb 20 uM (Raw264.7 cells): 325.6
12 | O=C(N/N=C/c1cccc([N+](=O)[O-])c1)c1ccncc1 [IPK 000 041 47] | 74.5 | 102 | 95.5 | 102 | 479.8 | 516.1 | 345.8 | 362.8 | 43.8 | 82.3 | 99.5 | –
13 | CN(C)c1ccc(/N=N/c2ccccc2C(=O)O)cc1 [IPK 000 052 75] | – | – | 10.1 | -77.4 | – | – | – | 48.8 | – | – | – | –
14 | CCCCOC(=O)C1(O)c2ccccc2-c2ccccc21 [IPK 000 105 56] | – | – | 86.9 | 65.7 | – | – | – | 225.0 | – | – | – | –
15 | O=C(N/N=C/c1cccc2ccccc12)c1ccncc1 [IPK 000 041 46] | 41.8 | 101 | 93.3 | 81.2 | 386.9 | 542.6 | 347.1 | 320.0 | 41.1 | 81.4 | 57.9 | –
16 | O=C(CSc1cccs1)Nc1nccs1 [IPK 000 002 87] | 11.4 | -1.3 | 66 | 65.9 | 315.9 | 246.1 | 412.9 | 350.3 | 45.9 | 36.1 | 36.4 | –
17 | Clc1ccc(Nc2nc3nonc3nc2Nc2ccc(Cl)c(Cl)c2)cc1Cl [IPK 000 003 89] | 20.1 | 86.6 | 84.6 | 27.7 | 265.3 | 200.6 | 103.0 | 72.5 | 44 | 76.5 | 67 | –
18 | CC1=NN(C(=O)c2ccncc2)C(O)(C(F)(F)F)C1 (stereo not drawn) [IPK 000 009 78] | 17 | 50.2 | 88.6 | 103 | 325.5 | 414.4 | 376.1 | 454.5 | 30 | 61.1 | 100 | –
19 | NNC(=O)c1ccncc1 [INH, isoniazid, reference compound] | – | – | – | – | – | – | – | – | – | – | – | minimal inhibitory concentration (MIC) [1]: 0.16 ± 0.05 µg/mL (≈ 1.17 µM); MIC ([1]; Mycobacterium tuberculosis, H37RV, 120 h, read-out: minimal inhibitory concentration (MIC)): 0.1 µg/mL (≈ 0.729 µM); MIC ([2]; read-out: minimal inhibitory concentration (MIC)): 0.1 µg/mL (≈ 0.729 µM)
20 | [C-]#[N+]c1ccc(Cl)cc1C(C)S(=O)(=O)c1ccc(C)cc1 (stereo not drawn) [IPK 000 126 33] | – | – | – | – | – | 126.8 | – | 123.3 | – | – | – | inhibition at 20 µM [1, 10]: 73.4%; inhibition at 20 µM [1, 11]: 80.7%
21 | O=C(O)c1cn(C2CC2)c2cc(N3CCNCC3)c(F)cc2c1=O [IPK 000 117 14] | – | – | – | – | – | – | – | 546.0 | – | – | – | inhibition at 20 µM [1, 7]: 69.1%; inhibition at 20 µM [1, 9]: 66.5%
22 | O=C(Nc1ccc(Br)cc1)c1cc([N+](=O)[O-])cc([N+](=O)[O-])c1 [IPK 000 046 92] | – | – | 93.4 | 90.2 | – | – | – | 303.5 | – | – | – | –
23 | CC(C)(C)c1cc(C(=O)N/N=C2\C(=O)N(Cc3ccccc3)c3ccccc32)[nH]n1 [IPK 000 138 12] | – | – | – | – | – | – | – | 480.8 | – | – | – | inhibition at 20 µM [1, 10]: 105%; inhibition at 20 µM [1, 11]: 96.8%
24 | C=CCN1C(=O)/C(=N/NC(=O)c2ccc(F)cc2)c2ccccc21 [IPK 000 104 67] | – | – | 73.7 | 33.8 | – | – | – | 183.0 | – | – | – | –
25 | CNCCCN1c2ccccc2CCc2ccccc21 [IPK 000 224 59] | – | – | – | – | – | – | – | 60.3 | – | – | – | inhibition at 20 µM [1, 10]: 86.2%; inhibition at 20 µM [1, 11]: 72.9%
26 | CCCC(C)c1ccc(OCC(=O)N/N=C/c2ccsc2)cc1 (stereo not drawn) [IPK 000 148 11] | – | – | – | – | – | – | – | – | – | – | – | inhibition at 20 µM [1, 10]: 86.6%; inhibition at 20 µM [1, 11]: 65.4%
27 | C/C(=N/c1ccc(S(=O)(=O)N2CCOCC2)cc1)Nc1ccc(C(=O)O)c(O)c1 [IPK 000 128 37] | – | – | – | – | – | – | – | – | – | – | – | inhibition at 20 µM [1, 10]: 26.5%; inhibition at 20 µM [1, 11]: 43.8%
28 | O=[N+]([O-])c1ccc(/C=N/c2ccc(Cl)c([N+](=O)[O-])c2)o1 [IPK 000 178 24] | – | – | – | – | – | – | – | – | – | – | – | inhibition at 20 µM [1, 7]: -26.4%; inhibition at 20 µM [1, 9]: -4.1%
29 | O=C1OCc2cc(NC(=O)C34CC5CC(CC(C5)C3)C4)ccc21 [IPK 000 249 14] | – | – | – | – | – | – | – | – | – | – | – | inhibition at 20 µM [1, 10]: 68.6%; inhibition at 20 µM [1, 11]: 45%
30 | O=[N+]([O-])c1ccc(CSc2nnnn2C2CCCCC2)cc1 [IPK 000 258 07] | – | – | – | – | – | – | – | – | – | – | – | inhibition at 20 µM [1, 10]: 72.7%; inhibition at 20 µM [1, 11]: 49.9%
